Reference: ChEMBL document CHEMBL1152806, “Discovery of a potent, selective, and orally efficacious pyrimidinooxazinyl bicyclooctaneacetic acid diacylglycerol acyltransferase-1 inhibitor” (J Med Chem, 2009)

Target: T1, Diacylglycerol O-acyltransferase 1 (Homo sapiens, UniProt O75907)
T1 sequence (O75907 whole entry): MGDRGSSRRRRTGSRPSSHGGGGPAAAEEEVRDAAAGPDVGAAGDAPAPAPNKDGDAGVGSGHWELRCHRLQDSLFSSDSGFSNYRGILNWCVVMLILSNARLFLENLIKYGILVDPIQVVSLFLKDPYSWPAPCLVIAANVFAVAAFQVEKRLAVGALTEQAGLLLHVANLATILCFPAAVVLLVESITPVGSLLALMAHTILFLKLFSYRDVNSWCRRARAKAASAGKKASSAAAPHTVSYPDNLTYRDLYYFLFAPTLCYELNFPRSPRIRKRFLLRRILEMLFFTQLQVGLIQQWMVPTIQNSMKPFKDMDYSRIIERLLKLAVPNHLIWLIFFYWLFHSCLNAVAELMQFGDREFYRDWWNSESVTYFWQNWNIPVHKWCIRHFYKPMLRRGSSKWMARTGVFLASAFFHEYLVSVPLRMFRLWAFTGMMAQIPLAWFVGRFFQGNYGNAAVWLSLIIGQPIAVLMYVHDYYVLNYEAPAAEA
Experiment: Inhibition of human recombinant DGAT1 expressed in Sf9 cells by liquid scintillography

Question: With `CC1(C)Oc2ncnc(N)c2N=C1c1ccc(C23CCC(C(=O)O)(CC2)CC3)cc1` as the compound, how does the IC50 read?
Answer: Its IC50 is 28 nM.
